US20120270819A1, “USE OF COMPOUNDS WITH SGLT-1/SGLT-2 INHIBITOR ACTIVITY FOR PRODUCING MEDICAMENTS FOR TREATMENT OF BONE DISEASE” (SANOFI, priority 2009, published 2012)

Test system: female Sprague-Dawley mature and young adult rats
Test: Ex vivo peripheral quantitative computed tomography (pQCT) of right femur (metaphysis, diaphysis, length)
Type: in vivo, rat
Settings: Mature Adults; for pQCT femur (diaphysis) CSMI / pQCT femur (diaphysis) Cortical Area / pQCT femur (diaphysis) Cortical BMC / pQCT femur (diaphysis) Cortical BMD / pQCT femur (diaphysis) Cortical Thickness / pQCT femur (diaphysis) Endosteal Circumference / pQCT femur (diaphysis) Periosteal Circumference / pQCT femur (diaphysis) Total Area / pQCT femur (diaphysis) Total BMC / pQCT femur (diaphysis) Total BMD / pQCT femur Length / pQCT femur metaphysis C/SC (Cortical/Subcortical) BMC / pQCT femur metaphysis C/SC (Cortical/Subcortical) BMD / pQCT femur metaphysis Total Area / pQCT femur metaphysis Total BMC / pQCT femur metaphysis Total BMD / pQCT femur metaphysis Trabecular BMC / pQCT femur metaphysis Trabecular BMD: mean
Experimental: The following were evaluated: clinical signs (at least weekly), body weight (weekly), food consumption (weekly), hormones (Days 13 and 27), serum and urinary biochemical markers of bone turnover (Days 13 and 27), serum chemistry (at necropsy), bone densitometry by dual energy X-ray absorptiometry (DXA) and peripheral quantitative computed tomography (pQCT) (Week 2 and 4, as well as ex vivo), macroscopic observations at necropsy, organ weights, histopathology, biomechanical strength testing and femoral length measurements.
3.2 Ex Vivo Peripheral Quantitative Computed Tomography (pQCT)
Peripheral QCT scans were performed ex vivo using an XCT Research SA or SA+ bone scanner with software version 5.50D. Scans were obtained for the right femur, L3 and L4 lumbar vertebra for all animals euthanized at the end of the treatment period as well as two found dead animals. These two animals were scanned twice due to technical oversight, however only the first scans obtained were reported and the second scans were kept with the study file, this had no impact on the study as both scans were considered equivalent.
For the femurs, the scanned site was at the expected 3-point bending fracture site (diaphysis). This site was analyzed using Cortmode 2 for cortical bone measurements only (Table 5). An additional slice was obtained in the metaphysis. The metaphysis scan was not performed for the femur of three animals due to condyles detachment from the femur during trimming.
The femoral length was measured as part of the ex vivo pQCT scanning procedures and was reported for the right femur of all animals with the exception of 3 animas due to damaged femoral condyles.
All analyses were performed using the LOOP option of the analysis software. All other data generated as a result of the LOOP option were retained with the raw data but not reported. The most appropriate analysis mode for the femur and the lumbar vertebrae was used and documented in the raw data and the analysis details are presented in Table 6. All scan analysis data was retained and re-analyses documented.

SMILES: COc1ccc(Cc2c(OC3OC(CO)C(F)C(O)C3O)n[nH]c2C(F)(F)F)cc1 (stereo not drawn) [Example 5 of formula II]
- pQCT femur (diaphysis) CSMI, percent difference from Vehicle Control (10 mg/kg/day): 5.7%
- pQCT femur (diaphysis) Cortical Area, percent difference from Vehicle Control (10 mg/kg/day): 2.3%
- pQCT femur (diaphysis) Cortical BMC, percent difference from Vehicle Control (10 mg/kg/day): 2.7%
- pQCT femur (diaphysis) Cortical BMD, percent difference from Vehicle Control (10 mg/kg/day): 0.5%
- pQCT femur (diaphysis) Cortical Thickness, percent difference from Vehicle Control (10 mg/kg/day): 0.6%
- pQCT femur (diaphysis) Endosteal Circumference, percent difference from Vehicle Control (10 mg/kg/day): 2.3%
- pQCT femur (diaphysis) Periosteal Circumference, percent difference from Vehicle Control (10 mg/kg/day): 1.0%
- pQCT femur (diaphysis) Total Area, percent difference from Vehicle Control (10 mg/kg/day): 3.1%
- pQCT femur (diaphysis) Total BMC, percent difference from Vehicle Control (10 mg/kg/day): 3.0%
- pQCT femur (diaphysis) Total BMD, percent difference from Vehicle Control (10 mg/kg/day): 0.1%
- pQCT femur Length, percent difference from Vehicle Control (10 mg/kg/day): −0.4%
- pQCT femur metaphysis C/SC BMC, percent difference from Vehicle Control (10 mg/kg/day): 6.2%
- pQCT femur metaphysis C/SC BMD, percent difference from Vehicle Control (10 mg/kg/day): 2.0%
- pQCT femur metaphysis Total Area, percent difference from Vehicle Control (10 mg/kg/day): 4.4%
- pQCT femur metaphysis Total BMC, percent difference from Vehicle Control (10 mg/kg/day): 7.8%
- pQCT femur metaphysis Total BMD, percent difference from Vehicle Control (10 mg/kg/day): 3.5%
- pQCT femur metaphysis Trabecular BMC, percent difference from Vehicle Control (10 mg/kg/day): 14.7%
- pQCT femur metaphysis Trabecular BMD, percent difference from Vehicle Control (10 mg/kg/day): 9.9%
- pQCT femur (diaphysis) CSMI (10 mg/kg/day): 5.0 mm^4
- pQCT femur (diaphysis) Cortical Area (10 mg/kg/day): 6.5 mm^2
- pQCT femur (diaphysis) Cortical BMC (10 mg/kg/day): 8.5 mg/mm
- pQCT femur (diaphysis) Cortical BMD (10 mg/kg/day): 1312.6 mg/cm^3
- pQCT femur (diaphysis) Cortical Thickness (10 mg/kg/day): 0.76 mm
- pQCT femur (diaphysis) Endosteal Circumference (10 mg/kg/day): 6.2 mm
- pQCT femur (diaphysis) Periosteal Circumference (10 mg/kg/day): 10.8 mm
- pQCT femur (diaphysis) Total Area (10 mg/kg/day): 9.6 mm^2
- pQCT femur (diaphysis) Total BMC (10 mg/kg/day): 9.1 mg/mm
- pQCT femur (diaphysis) Total BMD (10 mg/kg/day): 955.6 mg/cm^3
- pQCT femur Length (10 mg/kg/day): 37.0 mm
- pQCT femur metaphysis C/SC (Cortical/Subcortical) BMC (10 mg/kg/day): 10.1 mg/mm
- pQCT femur metaphysis C/SC (Cortical/Subcortical) BMD (10 mg/kg/day): 1054.0 mg/cm^3
- pQCT femur metaphysis Total Area (10 mg/kg/day): 16.0 mm^2
- pQCT femur metaphysis Total BMC (10 mg/kg/day): 12.6 mg/mm
- pQCT femur metaphysis Total BMD (10 mg/kg/day): 791.1 mg/cm^3
- pQCT femur metaphysis Trabecular BMC (10 mg/kg/day): 2.5 mg/mm
- pQCT femur metaphysis Trabecular BMD (10 mg/kg/day): 396.9 mg/cm^3
- pQCT femur (diaphysis) CSMI, percent difference from Vehicle Control (50 mg/kg/day): −3.0%
- pQCT femur (diaphysis) Cortical Area, percent difference from Vehicle Control (50 mg/kg/day): 0.2%
- pQCT femur (diaphysis) Cortical BMC, percent difference from Vehicle Control (50 mg/kg/day): 1.2%
- pQCT femur (diaphysis) Cortical BMD, percent difference from Vehicle Control (50 mg/kg/day): 1.0%
- pQCT femur (diaphysis) Cortical Thickness, percent difference from Vehicle Control (50 mg/kg/day): 3.5%
- pQCT femur (diaphysis) Endosteal Circumference, percent difference from Vehicle Control (50 mg/kg/day): −5.6%
- pQCT femur (diaphysis) Periosteal Circumference, percent difference from Vehicle Control (50 mg/kg/day): −2.1%
- pQCT femur (diaphysis) Total Area, percent difference from Vehicle Control (50 mg/kg/day): −3.4%
- pQCT femur (diaphysis) Total BMC, percent difference from Vehicle Control (50 mg/kg/day): 0.0%
- pQCT femur (diaphysis) Total BMD, percent difference from Vehicle Control (50 mg/kg/day): 3.5%
- pQCT femur Length, percent difference from Vehicle Control (50 mg/kg/day): −0.4%
- pQCT femur metaphysis C/SC BMC, percent difference from Vehicle Control (50 mg/kg/day): 4.0%
- pQCT femur metaphysis C/SC BMD, percent difference from Vehicle Control (50 mg/kg/day): 7.0%
- pQCT femur metaphysis Total Area, percent difference from Vehicle Control (50 mg/kg/day): −2.7%
- pQCT femur metaphysis Total BMC, percent difference from Vehicle Control (50 mg/kg/day): 5.1%
- pQCT femur metaphysis Total BMD, percent difference from Vehicle Control (50 mg/kg/day): 8.0%
- pQCT femur metaphysis Trabecular BMC, percent difference from Vehicle Control (50 mg/kg/day): 9.7%
- pQCT femur metaphysis Trabecular BMD, percent difference from Vehicle Control (50 mg/kg/day): 12.3%
- pQCT femur (diaphysis) CSMI (50 mg/kg/day): 4.6 mm^4
- pQCT femur (diaphysis) Cortical Area (50 mg/kg/day): 6.4 mm^2
- pQCT femur (diaphysis) Cortical BMC (50 mg/kg/day): 8.4 mg/mm
- pQCT femur (diaphysis) Cortical BMD (50 mg/kg/day): 1319.4 mg/cm^3
- pQCT femur (diaphysis) Cortical Thickness (50 mg/kg/day): 0.78 mm
- pQCT femur (diaphysis) Endosteal Circumference (50 mg/kg/day): 5.7 mm
- pQCT femur (diaphysis) Periosteal Circumference (50 mg/kg/day): 10.4 mm
- pQCT femur (diaphysis) Total Area (50 mg/kg/day): 9.0 mm^2
- pQCT femur (diaphysis) Total BMC (50 mg/kg/day): 8.8 mg/mm
- pQCT femur (diaphysis) Total BMD (50 mg/kg/day): 988.0 mg/cm^3
- pQCT femur Length (50 mg/kg/day): 37.0 mm
- pQCT femur metaphysis C/SC (Cortical/Subcortical) BMC (50 mg/kg/day): 9.9 mg/mm
- pQCT femur metaphysis C/SC (Cortical/Subcortical) BMD (50 mg/kg/day): 1105.5 mg/cm^3
- pQCT femur metaphysis Total Area (50 mg/kg/day): 14.9 mm^2
- pQCT femur metaphysis Total BMC (50 mg/kg/day): 12.3 mg/mm
- pQCT femur metaphysis Total BMD (50 mg/kg/day): 825.3 mg/cm^3
- pQCT femur metaphysis Trabecular BMC (50 mg/kg/day): 2.4 mg/mm
- pQCT femur metaphysis Trabecular BMD (50 mg/kg/day): 405.3 mg/cm^3
